{"source": "patent US8445207B2", "about": "“Genes based on thalidomide, valproic acid and methotrexate treatment for screening of drug inducing teratogenicity and screening method using thereof” (priority 2009, dated 2013)", "key": {"[1]": {"system": "JEG-3 (human placental choriocarcinoma cell line)", "assay": "Cytotoxicity test (MTT assay) in JEG-3"}, "[2]": {"system": "JEG-3 (human placental choriocarcinoma cell line)", "assay": "Oligo microarray gene expression in drug-treated JEG-3 (Cy5 treated / Cy3 control)", "type": "cell-based", "procedure": "Thalidomide, valproic acid, and methotrexate were treated to human placental choriocarcinoma cell line at the concentrations determined above (Inhibition concentration: the concentration that can kill approximately 30% of the total cells, that is the concentration of 70% viability, IC30). mRNA was extracted from the drug treated cell line, followed by synthesis of cDNA which was labeled with Cy5. The non-treated control was labeled with Cy3. The fluorescence labeled cDNA was hybridized with 41K (thalidomide), 44K (valproic acid, methotrexate) human whole genome oligomicroarray chips (Agilent, USA), followed by fluorescent image scanning to analyze gene expression patterns (see FIG. 4). Volcano Plot of each substance was also attached. Y axis indicates probability (generally converted by −log 10). X axis indicates differential expression, which is presented by log-ratio.\nTotal RNA was separated from the treated cell by using trizol reagent (Invitrogen Life Technologies, USA) according to the manufacture's instructions, followed by purification using RNeasy mini kit (Qiagen, USA). Genomic DNA was eliminated during RNA purification using RNase-free DNase set (Qiagen, USA).\n30 μg of the total RNA obtained above and 2 μg (1 μg/μl) of oligo (dT) primer were mixed, followed by reaction at 65° C. for 10 minutes. Annealing was performed in ice right after the reaction. Reagents were prepared as shown in Table 1 for reverse transcription of the annealed RNA.\nThe total RNA separated from the control group JEG-3 cells was labeled with Cy3-dUTP (green) and the total RNA separated from the experiment group JEG-3 cells treated with thalidomide, valproic acid and methotrexate was labeled with Cy5-dUTP (red). At this time, the two samples were mixed and purified by Microcon YM-30 column (Millipore, USA).\nHybridization and washing were performed by the manufacturer's (GenoCheck, Korea) instructions. Particularly, hybridization was performed in a 62° C. oven for 12 hours. As a DNA microarray chip, 44 k whole human genome oligo microarray (Agilent, USA) was used. After washing (2 minutes with 2×SSC/0.1% SDS, three minutes with 1×SSC, 2 minutes with 0.2×SSC), the slide was dried by centrifugation at 800 rpm for 3 minutes.\nHybridization image on the slide was scanned with Genepix 4000B (Axon Instruments, USA). Fluorescence image of the chip on which non-hybridized genes had been washed out was obtained by using laser fluorescence scanner. Green fluorescence image indicates the activity of gene specifically expressed in the control group and red fluorescence image indicates the activity of gene specifically expressed in the experimental group. […] Scanned image was analyzed by using GenePix 4.1 software (Axon Instruments, USA) to calculate gene expression rate."}}}
{"smiles": "CN(Cc1cnc2nc(N)nc(N)c2n1)c1ccc(C(=O)N[C@@H](CCC(=O)O)C(=O)O)cc1", "note": "[MTX, methotrexate]", "values": [{"measurement": "cytotoxicity to JEG-3", "setting": "[1]; FIGS. 1, 2 and 3", "value": "confirmed to have toxicity"}, {"measurement": "IC30 (concentration shows 70% survival rate)", "setting": "[1]; JEG-3, 48 hours, MTT, FIG. 1", "value": 4.570, "unit": "mM"}, {"measurement": "cDNA microarray (Cy3/Cy5 ratio), KIAA0310", "setting": "[2]; GenBank AB002308", "value": 2.29}, {"measurement": "cDNA microarray (Cy3/Cy5 ratio), ATP10B", "setting": "[2]; GenBank AB018258", "value": 4.95}, {"measurement": "cDNA microarray (Cy3/Cy5 ratio), TTF2", "setting": "[2]; GenBank AB209845", "value": 1.94}, {"measurement": "cDNA microarray (Cy3/Cy5 ratio), TncRNA", "setting": "[2]; GenBank AF001893", "value": 2.11}, {"measurement": "cDNA microarray (Cy3/Cy5 ratio), C4orf19", "setting": "[2]; GenBank AK001879", "value": 4.69}, {"measurement": "cDNA microarray (Cy3/Cy5 ratio), CYP19A1", "setting": "[2]; GenBank AK023571", "value": 2.72}, {"measurement": "cDNA microarray (Cy3/Cy5 ratio), SLC40A1", "setting": "[2]; GenBank AK023574", "value": 3.06}, {"measurement": "cDNA microarray (Cy3/Cy5 ratio), ABTB2", "setting": "[2]; GenBank AK095632", "value": 4.65}, {"measurement": "cDNA microarray (Cy3/Cy5 ratio), TUBB3", "setting": "[2]; GenBank AK122757", "value": 7.85}, {"measurement": "cDNA microarray (Cy3/Cy5 ratio), MGC27016", "setting": "[2]; GenBank AK125877", "value": 1.52}, {"measurement": "cDNA microarray (Cy3/Cy5 ratio), GLCCI1", "setting": "[2]; GenBank AK126731", "value": 2.84}, {"measurement": "cDNA microarray (Cy3/Cy5 ratio), TFCP2L4", "setting": "[2]; GenBank BC036890", "value": 4.11}, {"measurement": "cDNA microarray (Cy3/Cy5 ratio), RGS2", "setting": "[2]; GenBank BC042755", "value": 9.24}, {"measurement": "cDNA microarray (Cy3/Cy5 ratio), SIAT7A", "setting": "[2]; GenBank BC063830", "value": 15.01}, {"measurement": "cDNA microarray (Cy3/Cy5 ratio), B7-H4", "setting": "[2]; GenBank BX648021", "value": 0.27}, {"measurement": "cDNA microarray (Cy3/Cy5 ratio), COBLL1", "setting": "[2]; GenBank BX649112", "value": 4.89}, {"measurement": "cDNA microarray (Cy3/Cy5 ratio), CGA", "setting": "[2]; GenBank NM_000735", "value": 8.07}, {"measurement": "cDNA microarray (Cy3/Cy5 ratio), PARP1", "setting": "[2]; GenBank NM_001618", "value": 0.6}, {"measurement": "cDNA microarray (Cy3/Cy5 ratio), SERPINB9", "setting": "[2]; GenBank NM_004155", "value": 4.04}, {"measurement": "cDNA microarray (Cy3/Cy5 ratio), ST8SIA4", "setting": "[2]; GenBank NM_005668", "value": 1.82}, {"measurement": "cDNA microarray (Cy5 treated / Cy3 control ratio), ABL1", "setting": "[2]; GenBank NM_007313", "value": 0.49}, {"measurement": "cDNA microarray (Cy3/Cy5 ratio), GRLF1", "setting": "[2]; GenBank NM_024342", "value": 0.29}, {"measurement": "cDNA microarray (Cy3/Cy5 ratio), LGP1", "setting": "[2]; GenBank NM_032484", "value": 0.49}, {"measurement": "cDNA microarray (Cy3/Cy5 ratio), NCOA3", "setting": "[2]; GenBank NM_181659", "value": 2.12}, {"measurement": "cDNA microarray (Cy3/Cy5 ratio), SR140", "setting": "[2]; GenBank XM_031553", "value": 0.66}, {"measurement": "cDNA microarray (Cy3/Cy5 ratio), SLC7A8", "setting": "[2]; GenBank Y18483", "value": 3.76}, {"measurement": "Ratio of intermediate value, NLGN1", "setting": "[2]; Genbank AB028993, drug at IC30", "value": 0.25}, {"measurement": "Ratio of intermediate value, VARS2L", "setting": "[2]; Genbank AB067472, drug at IC30", "value": 0.46}, {"measurement": "Ratio of intermediate value, PPAT", "setting": "[2]; Genbank AB209246, drug at IC30", "value": 0.44}, {"measurement": "Ratio of intermediate value, SEMA3B", "setting": "[2]; Genbank AB209322, drug at IC30", "value": 0.48}, {"measurement": "Ratio of intermediate value, SCLY", "setting": "[2]; Genbank AB209458, drug at IC30", "value": 0.41}, {"measurement": "Ratio of intermediate value, C8orf1", "setting": "[2]; Genbank AF061326, drug at IC30", "value": 0.46}, {"measurement": "Ratio of intermediate value, KUB3", "setting": "[2]; Genbank AF078164, drug at IC30", "value": 0.45}, {"measurement": "Ratio of intermediate value, GTF2H2", "setting": "[2]; Genbank AF078847, drug at IC30", "value": 0.44}, {"measurement": "Ratio of intermediate value, PARD3", "setting": "[2]; Genbank AF196185, drug at IC30", "value": 0.28}, {"measurement": "Ratio of intermediate value, Homo sapiens cDNA FLJ12651 fis, clone NT2RM4002062", "setting": "[2]; Genbank AK022713, drug at IC30", "value": 0.21}, {"measurement": "Ratio of intermediate value, BCAT2", "setting": "[2]; Genbank AK023909, NM_001190, drug at IC30", "value": 0.35}, {"measurement": "Ratio of intermediate value, ASS", "setting": "[2]; Genbank AK027126, drug at IC30", "value": 0.19}, {"measurement": "Ratio of intermediate value, SHMT2", "setting": "[2]; Genbank AK055053, drug at IC30", "value": 0.42}, {"measurement": "Ratio of intermediate value, FLJ23441", "setting": "[2]; Genbank AK056980, drug at IC30", "value": 0.41}, {"measurement": "Ratio of intermediate value, RUVBL2", "setting": "[2]; Genbank AK057498, drug at IC30", "value": 0.42}, {"measurement": "Ratio of intermediate value, ERCC2", "setting": "[2]; Genbank AK092872, drug at IC30", "value": 0.40}, {"measurement": "Ratio of intermediate value, PHGDH", "setting": "[2]; Genbank AK093306, drug at IC30", "value": 0.16}, {"measurement": "Ratio of intermediate value, GLUD1", "setting": "[2]; Genbank AK122685, drug at IC30", "value": 0.34}, {"measurement": "Ratio of intermediate value, HMGB1", "setting": "[2]; Genbank AK122825, drug at IC30", "value": 0.37}, {"measurement": "Ratio of intermediate value, YARS", "setting": "[2]; Genbank AK125213, drug at IC30", "value": 0.38}, {"measurement": "Ratio of intermediate value, FANCF", "setting": "[2]; Genbank BC005077, NM_022725, drug at IC30", "value": 0.40}, {"measurement": "Ratio of intermediate value, C9orf103", "setting": "[2]; Genbank BC036421, drug at IC30", "value": 0.38}, {"measurement": "Ratio of intermediate value, CAD", "setting": "[2]; Genbank BC065510, drug at IC30", "value": 0.40}, {"measurement": "Ratio of intermediate value, GRLF1", "setting": "[2]; Genbank BI494022, NM_024342, drug at IC30", "value": 0.29}, {"measurement": "Ratio of intermediate value, CIB1", "setting": "[2]; Genbank BM467105, drug at IC30", "value": 0.44}, {"measurement": "Ratio of intermediate value, RAD51L1", "setting": "[2]; Genbank BX248766, drug at IC30", "value": 0.43}, {"measurement": "Ratio of intermediate value, NBS1", "setting": "[2]; Genbank BX640816, drug at IC30", "value": 0.31}, {"measurement": "Ratio of intermediate value, B7-H4", "setting": "[2]; Genbank BX648021, drug at IC30", "value": 0.27}, {"measurement": "Ratio of intermediate value, APEX1", "setting": "[2]; Genbank CR611116, drug at IC30", "value": 0.33}, {"measurement": "Ratio of intermediate value, GNAO1", "setting": "[2]; Genbank CR936770, drug at IC30", "value": 0.49}, {"measurement": "Ratio of intermediate value, DCLRE1A", "setting": "[2]; Genbank D42045, drug at IC30", "value": 0.43}]}
